Laboratory results reported in patent US20090270363A1, “2-Aryl- and 2-Heteroarylthiazolyl Compounds, Methods for Their Preparation and Use Thereof” (Wyeth, priority 2008, published 2009).

Legend:
[1] = tested on: HCT116 cells (Securin+/+, securin parental, HCT116 FB); assay: Growth inhibition (sulforhodamine B, 5 days) of securin parental cells; format: cell-based; settings: Homo sapiens, HCT-116, 120 h, SRB
Experimental: (§1) IC50 analysis was performed for selected fused bicyclic 2-aryl or 2-heteroarylthiazolyl compounds that were tested on HCT116 cells and Securin “knock out” cell lines.
(§2) Cell Culture—HCT116 and securin “knock out” cells. HCT116 and securin “knock out” cells (D8 and F3) were grown in RPMI+5% fetal bovine serum and gentamycin. They were maintained in a humidified 37° C. incubator with 5% CO2. Since the securin “knock out” cells have active chromosomal instability, cells were used at a low passage number of 2-13 passages. At or before passage 13 a new vial of cells was thawed and used for the screen. Cell seeding—HCT116 cells and securin “knock out” cells were trypsinized and suspended in RPMI+5% FBS at a density of 27,000 cells/mL. HCT116 and securin “knock out” cells were seeded separately in wells of a 96-well plate (Falcon Cat # 35-3872) at a cell density of 4000 cells per well. Cells were seeded in 150 μL of RPMI media containing 5% FBS and gentamycin. Cell seeding was performed under aseptic conditions. Cells were allowed to attach and grow overnight in a humidified 37° C. incubator.
(§3) Compound Dilution and Dispensation. A series of stock solutions, 10 mg/mL of fused bicyclic 2-aryl- or 2-heteroarylthiazolyl compounds to be tested, were brought to room temperature. The compounds were diluted 1:50 in RPMI+5% FBS (Highest concentration 200 μg/mL). The compounds were then serially diluted 1:3 across a deep-well titration plate resulting in final concentrations in the plate of 200, 66.7, 22.2, 7.4, 2.4, 0.8, 0.27, 0.091, 0.03, 0.01, and 0.0034 μg/mL with one well left without a compound. 50 μL of this dilution series was added to the 150 μL of cells to result in a final concentration of compound in with the cells of 50, 16.6, 5.5, 1.8, 0.6, 0.2, 0.068, 0.023, 0.0076, 0.0025, and 0.00084 μg/mL. The dilution and addition of compounds to the plates is performed using a Multimek 96 Robot (Beckman Coulter).
(§4) Incubation and analysis. After dosing, the cells in the 96 well plates were returned to the humidified 37° C. incubator. The compounds remained on the cells for 5 days. After 5 days, the cells were fixed to the plates with the addition of 50 μL of 50% (vol/vol) Trichloro Acetic Acid ([…]). The cells were fixed at 4° C. for 1 hour. The plates were washed 5 times in distilled water and allowed to dry. The cells were stained with 0.4% sulforhodamine B (Sigma) in 1% acetic acid. The cells were stained for 15 minutes at room temperature. The plates were then washed 3 times in 1% acetic acid. The plates were dried and the dye was solubilized in 10 mM Tris at pH 8.0. The plates were read on the Absorbence 560 setting on a Victor^2 V Model 1420 Multilabel HTS counter (Perkin Elmer).
(§5) Analysis of Results—IC50 data. Absorbence data was read off of the Victor and was converted to a percentage of the control (untreated) values. IC50 values were graphed and the point at which a 50% inhibition of the control level was determined. […] If the model was not able to determine an IC50, the IC50 was assigned to the lowest concentration that gives a 50% or greater decrease in absorbence compared to control levels. If the calculated IC50 value for a cell line exceeds the top concentration for the assay (typically 50 μg/mL), the assay was scored as >50.
(§6) Selectivity Ratio. The Selectivity Ratio is the ratio of IC50s between the parent cell line and the knock out cell line and is always a positive number and is typically an integer.

[2] = tested on: securin "knock out" cells D8 (Securin-/-); assay: Growth inhibition (sulforhodamine B, 5 days) of securin knock out cells D8; format: cell-based; settings: for IC50: 120 h, securin knock out D8 cells, 5 days, SRB; for Selectivity Ratio D8: IC50 HCT116 / IC50 securin KO D8
Experimental: as §1, §2, §3, §4, §5, §6

[3] = tested on: securin "knock out" cells F3 (Securin-/-); assay: Growth inhibition (sulforhodamine B, 5 days) of securin knock out cells F3; format: cell-based; settings: for IC50: 120 h, securin knock out F3 cells, 5 days, SRB; for Selectivity Ratio F3: IC50 HCT116 / IC50 securin KO F3
Experimental: as §1, §2, §3, §4, §5, §6

[4] = tested on: Xenografts of a Human Breast Carcinoma Cell Line (MDA-MB-361); assay: Tumor xenograft study versus Herceptin (Table 2); format: in vivo
Experimental: (§7) Selected fused bicyclic 2-aryl- or 2-heteroarylthiazolyl compounds of formula I were tested for their activity in a securin parental cell line (HCT116 FB) and a securin knockout (KO) cell line. […] The in-vivo activity of selected fused bicyclic 2-aryl- or 2-heteroarylthiazolyl compounds of formula I was studied in cells growing as xenografts in athymic (nude) mice. The effect of Examples 164, 166 and 167 was studied in xenografts of a human breast carcinoma cell line (MDA-MB-361).
(§8) In-vivo Activity in Tumor Xenografts. […] The fused bicyclic 2-arylthiazolyl compounds were formulated using 0.5% Methocel™ (methylcellulose) and 0.4% Tween 80™ (polysorbate-80 and oleic acid) and administered daily orally (PO), by gavage or by syringe. Tumor mass [(length×width^2)/2] was determined every 7 days. Inhibition of tumor growth was calculated relative to conventional (vehicle treated) controls.

[5] = tested on: Xenografts of a Human Breast Carcinoma Cell Line (MDA-MB-361); assay: Tumor xenograft study versus Vincristine (Table 3); format: in vivo; settings: days 2 through 21; for S/T = # of Survivors/# of Treated on Day +36: * = sacrificed earlier due to tumor size
Experimental: as §7, §8
The effectiveness of Examples 164, 166 and 167 versus Vincristine at controlling tumor growth was studied and the results are summarized in Table 3 and FIG. 2.

[6] = 25 mg/kg/dose IP, days 1, 3, 5 ... 19
[7] = 25 mg/kg/dose PO, days 1 through 20
[8] = 20 mg/kg/dose PO, days 1 through 20

## CN(C)c1ccc(-c2nc3c(s2)[C@H](O)CCC3)cc1 [Example 164, (7R)-2-[4-(dimethylamino)phenyl]-4,5,6,7-tetrahydro-1,3-benzothiazol-7-ol]
[1]
  IC50: 101 µM
[2]
  selectivity ratios (IC50 HCT116 FB/IC50 securin KO): high selectivity ratios
  IC50: 0.81 µM
  Selectivity Ratio D8: 124
[3]
  IC50: 1.3 µM
  Selectivity Ratio F3: 78
[4]; [6]
  % T/C Day 7: 64%
  % T/C Day 14: 101%
  % T/C Day 21: 74%
  Relative Tumor Growth Day 7: 1.23
  Relative Tumor Growth Day 14: 3.23
  Relative Tumor Growth Day 21: 8.04
  S/T = # of Survivors/# of Treated on Day +21: 4/5
[4]; [7]
  % T/C Day 7: 81%
  % T/C Day 14: 115%
  % T/C Day 21: 117%
  Relative Tumor Growth Day 7: 1.57
  Relative Tumor Growth Day 14: 3.68
  Relative Tumor Growth Day 21: 12.27
  S/T = # of Survivors/# of Treated on Day +21: 5/5
[5]; 25 mg/kg/dose PO
  % T/C Day 8: 41%
  % T/C Day 15: 37%
  % T/C Day 22: 45%
  Relative Tumor Growth Day 8: 2.17
  Relative Tumor Growth Day 15: 4.64
  Relative Tumor Growth Day 22: 10.02
  Relative Tumor Growth Day 29: 15.52
[5]; 50 mg/kg/dose PO
  % T/C Day 8: 45%
  Relative Tumor Growth Day 8: 2.37
  Relative Tumor Growth Day 15: Toxic
  S/T = # of Survivors/# of Treated on Day +36: 0/5

## COC(=O)c1cc(N(C)C)ccc1-c1nc2c(s1)[C@H](O)CCC2 [Example 165, methyl 5-(dimethylamino)-2-[(7R)-7-hydroxy-4,5,6,7-tetrahydro-1,3-benzothiazol-2-yl]benzoate]
[1]
  IC50: 100 µM
[2]
  IC50: 0.29 µM
  Selectivity Ratio D8: 348
[3]
  IC50: 0.74 µM
  Selectivity Ratio F3: 136

## CN(C)c1ccc(-c2nc3c(s2)C(O)CCC3)cc1 (centres unmarked) [Example 166, 2-[4-(dimethylamino)phenyl]-4,5,6,7-tetrahydro-1,3-benzothiazol-7-ol]
[1]
  IC50: 52.5 µM
[2]
  IC50: 1.7 µM
  Selectivity Ratio D8: 30
[3]
  IC50: 3.5 µM
  Selectivity Ratio F3: 15
[4]; [8]
  % T/C Day 7: 69%
  % T/C Day 14: 126%
  % T/C Day 21: 102%
  Relative Tumor Growth Day 7: 1.33
  Relative Tumor Growth Day 14: 4.05
  Relative Tumor Growth Day 21: 10.76
  S/T = # of Survivors/# of Treated on Day +21: 10/10
[4]; [6]
  % T/C Day 7: 80%
  % T/C Day 14: 93%
  % T/C Day 21: 92%
  Relative Tumor Growth Day 7: 1.55
  Relative Tumor Growth Day 14: 3.00
  Relative Tumor Growth Day 21: 9.63
  S/T = # of Survivors/# of Treated on Day +21: 8/10
[5]; 10 mg/kg/dose PO
  % T/C Day 8: 60%
  % T/C Day 15: 60%
  % T/C Day 22: 100%
  Relative Tumor Growth Day 8: 3.16
  Relative Tumor Growth Day 15: 7.40
  Relative Tumor Growth Day 22: 22.01
[5]; 30 mg/kg/dose PO
  % T/C Day 8: 55%
  % T/C Day 15: 59%
  % T/C Day 22: 98%
  Relative Tumor Growth Day 8: 2.87
  Relative Tumor Growth Day 15: 7.34
  Relative Tumor Growth Day 22: 21.48
[5]; 40 mg/kg/dose PO
  % T/C Day 8: 33%
  % T/C Day 15: 35%
  % T/C Day 22: 53%
  Relative Tumor Growth Day 8: 1.72
  Relative Tumor Growth Day 15: 4.29
  Relative Tumor Growth Day 22: 11.74
  Relative Tumor Growth Day 29: 7.65
[5]; 50 mg/kg/dose PO
  % T/C Day 8: 58%
  % T/C Day 15: 62%
  Relative Tumor Growth Day 8: 3.04
  Relative Tumor Growth Day 15: 7.67
  Relative Tumor Growth Day 22: Toxic
  S/T = # of Survivors/# of Treated on Day +36: 0/5

## CN(C)c1ccc(-c2nc3c(s2)[C@@H](O)CCC3)cc1 [Example 167, (7S)-2-[4-(dimethylamino)phenyl]-4,5,6,7-tetrahydro-1,3-benzothiazol-7-ol]
[1]
  IC50: 100 µM
[2]
  IC50: 60 µM
  Selectivity Ratio D8: 2
[3]
  IC50: 70.7 µM
  Selectivity Ratio F3: 1
[4]; [8]
  % T/C Day 7: 46%
  % T/C Day 14: 61%
  % T/C Day 21: 61%
  Relative Tumor Growth Day 7: 0.89
  Relative Tumor Growth Day 14: 1.96
  Relative Tumor Growth Day 21: 6.39
  S/T = # of Survivors/# of Treated on Day +21: 5/5
[5]; 25 mg/kg/dose PO
  % T/C Day 8: 61%
  % T/C Day 15: 68%
  % T/C Day 22: 113%
  Relative Tumor Growth Day 8: 3.18
  Relative Tumor Growth Day 15: 8.38
  Relative Tumor Growth Day 22: 24.80
[5]; 50 mg/kg/dose PO
  % T/C Day 8: 50%
  % T/C Day 15: 62%
  % T/C Day 22: 71%
  Relative Tumor Growth Day 8: 2.62
  Relative Tumor Growth Day 15: 7.61
  Relative Tumor Growth Day 22: 15.56
